Patent US12569500B2, “Combination comprising tricycle compound and use thereof in preparation of medicament for treating HBV” (FUJIAN AKEYLINK BIOTECHNOLOGY CO., LTD., priority 2020, dated 2026)

Tested on: HepG2.2.15 cells
Assay: Cytotoxicity of the compounds in combination, CellTiter Glo
Type: cell-based
Description: Cell line: HepG2.2.15 cells are constructed and provided by WuXi AppTec. The cell culture medium is DMEM/F12 medium supplemented with 2% fetal bovine serum, 2 mM glutamine, 1×non-essential amino acids, 100 U/mL penicillin and 100 µg/mL streptomycin.
2.2.1 On the first day, HepG2.2.15 cells were seeded into a 96-well cell culture plate at a density of 60,000 cells/well, and then the cells were cultured overnight at 5% CO2 and 37° C. On the second day, different concentrations of compounds were added to treat the cells. Compounds were diluted in gradients, 7×7 concentration combinations, and 3 replicate plates were tested in parallel. The compound concentration tested for joint activity is based on the EC50 value of each compound. The 7 concentration gradients are approximately: 2×, 1×, ½×, ¼×, ⅛×, 1/16× and 1/32×EC50. The compound concentration of the combined activity test experiment is shown in Table 8, and the combination drug arrangement is shown in Table 9. On the 5th day, replace the fresh culture medium containing the compound. On the 8th day, the culture supernatant was collected, DNA was extracted, and the content of HBV DNA was detected by quantitative PCR. At the same time, CellTiter Glo reagent was used to detect cell viability and MacSynergy software was used to analyze the combined effect of the two drugs.

SMILES: Cc1cc2n(c1)S(=O)(=O)c1ccc(C(=O)NCC[C@H]3COCCO3)cc1NC2=O [Compound 1]
- average cell viability percentage (Compound 1 0.1875 nM + formula (IIIb) 0 nM): 110.07%
- average cell viability percentage (Compound 1 0.1875 nM + formula (IIb) 0 nM): 109.29%
- average cell viability percentage (Compound 1 0.375 nM + formula (IIIb) 0 nM): 112.42%
- average cell viability percentage (Compound 1 0.375 nM + formula (IIb) 0 nM): 109.88%
- average cell viability percentage (Compound 1 0.75 nM + formula (IIIb) 0 nM): 111.36%
- average cell viability percentage (Compound 1 0.75 nM + formula (IIb) 0 nM): 106.91%
- average cell viability percentage (Compound 1 1.5 nM + formula (IIIb) 0 nM): 111.96%
- average cell viability percentage (Compound 1 1.5 nM + formula (IIb) 0 nM): 105.37%
- average cell viability percentage (Compound 1 3 nM + formula (IIIb) 0 nM): 112.58%
- average cell viability percentage (Compound 1 3 nM + formula (IIb) 0 nM): 104.39%
- average cell viability percentage (Compound 1 6 nM + formula (IIIb) 0 nM): 112.45%
- average cell viability percentage (Compound 1 6 nM + formula (IIb) 0 nM): 103.50%
- average cell viability percentage (Compound 1 12 nM + formula (IIIb) 0 nM): 111.17%
- average cell viability percentage (Compound 1 12 nM + formula (IIb) 0 nM): 102.08%
